Laboratory results published in patent publication US20080280759A1, “6-(2-Fluoro-4-Alkoxyphenyl) Triazolopyrimidines, Their Preparation, Their Use For Controlling Harmful Fungi, and Compositions Comprising Them” (priority 2003, published 2008).

System: Botrytis cinerea
Test: Activity against gray mold on bell pepper leaves caused by Botrytis cinerea, protective application
Type: in vivo
Conditions: 250 ppm, sprayed the day before inoculation, assessed visually after 5 days, untreated plants 80% infected
Method: The active compounds were formulated separately as a stock solution with 0.25% by weight in acetone or DMSO. 1% by weight of the emulsifier Wettol EM 31 (wetting agent having emulsifying and dispersing action based on ethoxylated alkylphenols) was added to this solution. The stock solutions of the active compounds were diluted with water to the stated concentration. For examples 1 and 2, the active compounds were prepared as a stock solution with 25 mg of active compound which was made up to 10 ml using a mixture of acetone and/or DMSO and the emulsifier Uniperol® EL (wetting agent having emulsifying and dispersing action based on the ethoxylated alkylphenols) in a volume ratio of solvent/emulsifier of 99 to 1. The mixture was then made up with water to 100 ml. This stock solution was diluted with the solvent/emulsifier/water mixture described to the concentration of active compounds stated below. Bell pepper seedlings of the cultivar “Neusiedler Ideal Elite” were, after 2 to 3 leaves were well developed, sprayed to runoff point with an aqueous suspension having the concentration of active compounds stated below. The next day, the treated plants were inoculated with a spore suspension of Botrytis cinerea which contained 1.7×10^6 spores/ml in a 2% aqueous biomalt solution. The test plants were then placed in a dark climatized chamber at 22 to 24° C. and high atmospheric humidity. After 5 days, the extent of the fungal infection on the leaves could be determined visually in %.

Row | Molecule | fungal infection on the leaves
1 | COc1cc(F)c(-c2c(C#N)nc3ncnn3c2N2CCC(C)CC2)c(F)c1 [Compound I-1, 5-cyano-6-(2,6-difluoro-4-methoxyphenyl)-7-(4-methyl-piperidinyl)-1,2,4-triazolo[1,5a]pyrimidine] | no infection
2 | 5-methoxy-6-(2,6-difluoro-4-methoxyphenyl)-7-(4-methyl-piperidinyl)-1,2,4-triazolo[1,5a]pyrimidine [Compound I-3] | no infection
3 | COc1cc(F)c(-c2c(C)nc3ncnn3c2N2CCC(C)CC2)c(F)c1 [Compound I-2, 5-methyl-6-(2,6-difluoro-4-methoxyphenyl)-7-(4-methyl-piperidinyl)-1,2,4-triazolo[1,5a]pyrimidine] | no infection
